Experimental data taken from patent US12486227B2, “Small molecules for cancer therapy that reduce the expression of transcription factors KLF5 and EGR-1” (University of Florida Research Foundation, Incorporated, priority 2019, dated 2025).

Tested on: Cyclin D1, E, A2, and B1
Assay: Western blot of cyclin levels
Assay type: cell-based, human
Conditions: DLD-1 and HCT116, 1 μM or 10 μM, 72 h
Text: Cyclins and their appropriate cyclin-dependent kinases form a regulatory network that allow cells to progress through the cell cycle (39, 40). […] SR15006, or SR18662, as compared to vehicle-treated cells. Thus, we investigated if these changes are accompanied by differences in the expression levels of cyclins. We focused our attention on Cyclin D1, E, A2, and B1, as we have previously shown that ML264 has inhibitory effect on their levels (24). […] Additionally, in contrast to ML264 or SR15006, SR18862 induced apoptosis and cell death.
Western blot analysis. Total protein was extracted from cells with Laemmli buffer and the analysis was performed as described previously (24).

SMILES: CS(=O)(=O)N1CCN(C(=O)CNC(=O)/C=C/c2ccc(Cl)c(Cl)c2)CC1 [Example 9, (E)-3-(3,4-dichlorophenyl)-N-(2-(4-(methylsulfonyl)piperazin-1-yl)-2-oxoethyl)acrylamide]
- levels of cyclins: significant reduction in the levels of tested cyclins
